From PubChem BioAssay AID248 (DTP/NCI, 2004)
Values joined by “and” are separate entries in the source; they are usually repeats but may differ in a detail not shown here. Identical values can stand only once. Inconclusive results and toxic doses are left out. Rule as the data show it: active = T/C of 150% or more; inactive = T/C below 125%.

Tested on: L1210 leukemia ip in BDF1 mice, survival T/C
Assay: NCI In Vivo Anticancer Drug Screen. Data for tumor model L1210 Leukemia (intraperitoneal) in B6D2F1 (BDF1) mice
Conditions: endpoint: mean survival time, higher = longer survival
In short: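 Each compound was tested against a transplantable tumor grown in mice. The endpoint was survival, with treated animals benchmarked against vehicle controls as a simple ratio.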

[1] = dose: 100.0 mg/kg/injection, schedule: Q01DX009 (ip), vehicle: saline with Tween-80
[2] = dose: 200.0 mg/kg/injection, schedule: Q01DX009 (ip), vehicle: saline with Tween-80
[3] = dose: 100.0 mg/kg/injection, schedule: Q01DX009 (ip), vehicle: Klucel (hydroxypropylcellulose) (HPC)
[4] = dose: 100.0 mg/kg/injection, schedule: Q04DX003 (ip), vehicle: Klucel (hydroxypropylcellulose) (HPC)
[5] = dose: 200.0 mg/kg/injection, schedule: Q01DX009 (ip), vehicle: Klucel (hydroxypropylcellulose) (HPC)
[6] = dose: 200.0 mg/kg/injection, schedule: Q04DX003 (ip), vehicle: Klucel (hydroxypropylcellulose) (HPC)
[7] = dose: 400.0 mg/kg/injection, schedule: Q01DX009 (ip), vehicle: Klucel (hydroxypropylcellulose) (HPC)
[8] = dose: 400.0 mg/kg/injection, schedule: Q04DX003 (ip), vehicle: Klucel (hydroxypropylcellulose) (HPC)
[9] = dose: 100.0 mg/kg/injection, schedule: Q01DX001 (ip), vehicle: saline
[10] = dose: 12.5 mg/kg/injection, schedule: Q01DX009 (ip), vehicle: Klucel (hydroxypropylcellulose) (HPC)
[11] = dose: 25.0 mg/kg/injection, schedule: Q01DX009 (ip), vehicle: Klucel (hydroxypropylcellulose) (HPC)
[12] = dose: 25.0 mg/kg/injection, schedule: Q04DX003 (ip), vehicle: Klucel (hydroxypropylcellulose) (HPC)
[13] = dose: 50.0 mg/kg/injection, schedule: Q01DX009 (ip), vehicle: Klucel (hydroxypropylcellulose) (HPC)
[14] = dose: 50.0 mg/kg/injection, schedule: Q04DX003 (ip), vehicle: Klucel (hydroxypropylcellulose) (HPC)
[15] = dose: 100.0 mg/kg/injection, schedule: Q01DX001 (ip), vehicle: carboxymethylcellulose (CMC)
[16] = dose: 200.0 mg/kg/injection, schedule: Q01DX001 (ip), vehicle: carboxymethylcellulose (CMC)
[17] = dose: 400.0 mg/kg/injection, schedule: Q01DX001 (ip), vehicle: carboxymethylcellulose (CMC)
[18] = dose: 100.0 mg/kg/injection, schedule: Q04DX003 (ip), vehicle: saline with Tween-80
[19] = dose: 200.0 mg/kg/injection, schedule: Q04DX003 (ip), vehicle: saline with Tween-80
[20] = dose: 400.0 mg/kg/injection, schedule: Q04DX003 (ip), vehicle: saline with Tween-80
[21] = dose: 50.0 mg/kg/injection, schedule: Q01DX001 (ip), vehicle: carboxymethylcellulose (CMC)

Measured: T/C

O=[N+]([O-])c1ccc(N=Nc2ccccc2)cc1
inactive: [1] 109 % of control | [2] 104 % of control | dose: 400.0 mg/kg/injection, schedule: Q01DX009 (ip), vehicle: saline with Tween-80 105 % of control

Cc1cc(C)c(SC2c3ccccc3-c3ccccc32)c(C)c1
inactive: dose: 75.0 mg/kg/injection, schedule: Q01DX009 (ip), vehicle: saline with Tween-80 95 % of control | dose: 150.0 mg/kg/injection, schedule: Q01DX009 (ip), vehicle: saline with Tween-80 102 % of control | dose: 300.0 mg/kg/injection, schedule: Q01DX009 (ip), vehicle: saline with Tween-80 96 % of control

CC(=O)c1c(C)c(C)cc(C)c1C
inactive: [3] 110 % of control | [4] 96 % of control | [5] 97 % of control | [6] 103 % of control | [7] 111 % of control | [8] 103 % of control

N/N=C(\N)c1nn(C2OC(CO)C(O)C2O)c2ncnc(N)c12 (centres undefined)
inactive: dose: 60.0 mg/kg/injection, schedule: Q01DX005 (ip), vehicle: saline 116 % of control | dose: 100.0 mg/kg/injection, schedule: Q01DX005 (ip), vehicle: saline 124 % of control | dose: 200.0 mg/kg/injection, schedule: Q01DX005 (ip), vehicle: saline 113 % of control

Cc1noc(NC(=O)Nc2ccc(Cl)cc2Cl)c1C
inactive: dose: 12.5 mg/kg/injection, schedule: Q01DX009 (ip), vehicle: saline with Tween-80 86 % of control | dose: 25.0 mg/kg/injection, schedule: Q01DX009 (ip), vehicle: saline with Tween-80 89 % of control | dose: 50.0 mg/kg/injection, schedule: Q01DX009 (ip), vehicle: saline with Tween-80 91 % of control | [1] 91 % of control | [2] 87 % of control

COC(=O)N1C(c2ccccc2)(c2ccccc2)CS1(=O)=O
inactive: dose: 100.0 mg/kg/injection, schedule: Q04DX002 (ip), vehicle: Klucel (hydroxypropylcellulose) (HPC) 112 % of control | dose: 200.0 mg/kg/injection, schedule: Q04DX002 (ip), vehicle: Klucel (hydroxypropylcellulose) (HPC) 104 % of control | dose: 400.0 mg/kg/injection, schedule: Q04DX002 (ip), vehicle: Klucel (hydroxypropylcellulose) (HPC) 93 % of control

CC(=O)NC(Cc1cnc[nH]1)C(=O)O (centres undefined)
inactive: [9] 97 % of control | dose: 200.0 mg/kg/injection, schedule: Q01DX001 (ip), vehicle: saline 98 % of control | dose: 400.0 mg/kg/injection, schedule: Q01DX001 (ip), vehicle: saline 97 % of control

COc1ccc([N+](=O)[O-])cc1CN(C)C(C)C
inactive: [10] 97 % of control | dose: 12.5 mg/kg/injection, schedule: Q04DX003 (ip), vehicle: Klucel (hydroxypropylcellulose) (HPC) 97 % of control | [11] 97 % of control | [12] 100 % of control | [13] 92 % of control | [14] 97 % of control

CSc1ssc(=Nc2ccc(C)cc2)c1-c1ccccc1
inactive: [3] 95 % of control | [4] 88 % of control | [5] 93 % of control | [6] 91 % of control | [7] 93 % of control | [8] 89 % of control

CC1=CCC2C(C)(C)CCCC2(C)C1CO (centres undefined)
inactive: dose: 75.0 mg/kg/injection, schedule: Q01DX001 (ip), vehicle: saline 98 % of control | dose: 150.0 mg/kg/injection, schedule: Q01DX001 (ip), vehicle: saline 100 % of control | dose: 300.0 mg/kg/injection, schedule: Q01DX001 (ip), vehicle: saline 95 % of control

CSc1cc2c(cc1NC(C)=O)C(=O)c1ccccc1-2
inactive: [15] 90 % of control | [16] 106 % of control | [17] 109 % of control

CC[N+]1(C)CC2C3CCC(C)(O3)C2C1 (centres undefined)
inactive: dose: 44.0 mg/kg/injection, schedule: Q01DX Z (ip), vehicle: methylcellulose (MC) 104 % of control | dose: 66.0 mg/kg/injection, schedule: Q01DX Z (ip), vehicle: methylcellulose (MC) 98 % of control | dose: 100.0 mg/kg/injection, schedule: Q01DX Z (ip), vehicle: methylcellulose (MC) 104 % of control

C=CCOc1c(C)cc(C)cc1/C=C/C
inactive: [18] 94 % of control | [19] 97 % of control | [20] 96 % of control

CC1(C)OCC(/C=C/C=N/Nc2ccc([N+](=O)[O-])cc2)O1 (centres undefined)
inactive: [18] 94 % of control | [19] 96 % of control | [20] 91 % of control

COCCc1nnn(C)n1
inactive: dose: 100.0 mg/kg/injection, schedule: Q04DX002 (ip), vehicle: saline 97 % of control | dose: 200.0 mg/kg/injection, schedule: Q04DX002 (ip), vehicle: saline 97 % of control | dose: 400.0 mg/kg/injection, schedule: Q04DX002 (ip), vehicle: saline 108 % of control

CSc1ccc(C(=O)CCl)c(C)c1
inactive: [21] 94 % of control

CCOC(=S)c1ccc(S(=O)(=O)NC)cc1
inactive: dose: 100.0 mg/kg/injection, schedule: Q01DX001 (ip), vehicle: Klucel (hydroxypropylcellulose) (HPC) 109 % of control | dose: 200.0 mg/kg/injection, schedule: Q01DX001 (ip), vehicle: Klucel (hydroxypropylcellulose) (HPC) 100 % of control | dose: 400.0 mg/kg/injection, schedule: Q01DX001 (ip), vehicle: Klucel (hydroxypropylcellulose) (HPC) 110 % of control

O=C(O)c1ccccc1SSc1ccccc1C(=O)O
inactive: [21] 100 % of control | [15] 100 % of control | [16] 96 % of control | [17] 103 % of control

COCC(O)CN1CCN(c2ccccc2C)CC1 (centres undefined)
inactive: dose: 25.0 mg/kg/injection, schedule: Q01DX009 (ip), vehicle: saline 108 % of control | dose: 50.0 mg/kg/injection, schedule: Q01DX009 (ip), vehicle: saline 93 % of control | dose: 100.0 mg/kg/injection, schedule: Q01DX009 (ip), vehicle: saline 100 % of control

C=C(C)COc1c(C)c(C)c(OCC(=C)C)c(C)c1C
inactive: dose: 100.0 mg/kg/injection, schedule: Q01DX001 (ip), vehicle: DMSO 89 % of control | dose: 400.0 mg/kg/injection, schedule: Q01DX001 (ip), vehicle: DMSO 94 % of control

C=C(C)c1c2c(Sc3ccc(C(C)(C)C)cc3)cccc2cc2cccc(Sc3ccc(C(C)(C)C)cc3)c12
inactive: [18] 98 % of control | [19] 93 % of control | [20] 91 % of control

CCN(CC)CCCNc1nnc2c(=O)n(C)c(=O)n(C)c2n1
inactive: dose: 75.0 mg/kg/injection, schedule: Q04DX003 (ip), vehicle: saline 112 % of control | dose: 150.0 mg/kg/injection, schedule: Q04DX003 (ip), vehicle: saline 93 % of control | dose: 300.0 mg/kg/injection, schedule: Q04DX003 (ip), vehicle: saline 100 % of control

COc1ccccc1CC(C)N (centres undefined)
inactive: dose: 5.0 mg/kg/injection, schedule: Q01DX001 (ip), vehicle: saline 100 % of control | dose: 10.0 mg/kg/injection, schedule: Q01DX001 (ip), vehicle: saline 102 % of control | dose: 20.0 mg/kg/injection, schedule: Q01DX001 (ip), vehicle: saline 102 % of control | dose: 20.0 mg/kg/injection, schedule: Q01DX009 (ip), vehicle: saline 106 % of control | dose: 40.0 mg/kg/injection, schedule: Q01DX001 (ip), vehicle: saline 96 % of control | dose: 40.0 mg/kg/injection, schedule: Q01DX009 (ip), vehicle: saline 97 % of control | dose: 80.0 mg/kg/injection, schedule: Q01DX009 (ip), vehicle: saline 111 % of control | [9] 103 % of control

C#CCOP(=O)(C#CC)OCC#C
inactive: [12] 93 % of control | [14] 97 % of control | [4] 98 % of control | [18] 95 % of control

CC1CN=C(c2ccc(Br)cc2)O1 (centres undefined)
inactive: [1] 105 % of control | [2] 89 % of control

CCC(=O)Nc1cccc2ccccc12
inactive: [10] 104 % of control | [11] 112 % of control | [13] 101 % of control and 89 % of control | [4] 95 % of control | [6] 106 % of control
